Data: patent publication US12539326B2, “Methods for treating Alzheimer's disease using semaglutide” (Novo Nordisk A/S, priority 2019, dated 2026)

How the values were obtained:
[1] = test system: microglial inflammatory marker Iba1 in the hippocampus; assay: LPS-induced neuroinflammation in mice, Iba1 immunohistochemistry of the hippocampus; type: in vivo, mouse; details: C57BL/6 mice, Day 28, LPS+semaglutide 30 nmol/kg s.c. once per day; mean, SEM 0.49%; LPS+vehicle 12.17%; p<0.01
Excerpt: LPS-induced neuroinflammation is used as a non-genetic model of Alzheimer's disease in rodents. LPS is an endotoxin from gram-negative bacteria that provides a persistent inflammatory stimulus activating brain immune cells (neuroimmune cells). Microglia are a brain immune cell type activated by LPS, and the degree of neuroinflammation can be assessed by the area of microglia in brain tissue as measured by the microglia-specific marker ionized calcium binding adaptor molecule 1 (Iba1).
Here, LPS-induced neuroinflammation in mice was used to assess the impact of semaglutide on attenuating brain inflammation in the hippocampus, a brain region involved in memory and learning which is deteriorated in Alzheimer's Disease.
The experiment was carried out using C57BL/6 mice at 8-10 weeks of age. […]
Immediately after termination, whole brains were collected for immunohistochemical (IHC) analyses of neuroinflammation markers. […] The primary antibody was detected using a linker secondary antibody followed by amplification using a polymeric HRP-linker antibody conjugate. […]
Quantitative assessment of Iba1 signal was performed to measure the area of microglia in the hippocampus of the tissue section. […] The quantitative estimates of IHC-positive staining were calculated as an area fraction (AF) of the total tissue area where: […]

SAMP8 mice [2] = assay: Y-maze test (short-term memory) in SAMP8 mice; type: in vivo, mouse; details: SAMP8 mice at 16 weeks of age; 30 nmol/kg s.c. once a day; mean, SEM 1.6%; vehicle 42.8%; p<0.0001
Excerpt: Here, SAMP8 mice were utilized to characterize the impact of semaglutide treatment on memory deficits and cognitive decline. Two behavioural tests commonly used to assess cognitive deficits in rodents were employed to assay effects on short-term memory (Y-maze test) and long-term memory (step-through passive avoidance test). The Y-maze is test of short-term memory, assessing spatial working memory and exploratory behaviour by measuring spontaneous alternations, which is the frequency of entering a new arm of the maze rather than returning to one that was previously visited (described in methods). The step-through passive avoidance test measures associative long-term memory by assessing the learning of an association of an aversive stimulus to a particular context (described in methods). SAMP8 mice have measurable deficits in both tests as they age. […]
Testing in the Y-maze was performed at 8 weeks of age and 16 weeks of age, at approximately 15 and 71 days following treatment initiation respectively. […] The series of arm entries including possible returns into the same arm was monitored and alternation was defined as entries into all three arms on consecutive occasions. The number of maximum alternations was therefore the total number of arm entries minus two and the percentage of alternation was be calculated as (actual alternations/maximum alternations)×100.

SAMP8 mice [3] = assay: Step-through passive avoidance test (long-term memory) in SAMP8 mice; type: in vivo, mouse; details: SAMP8 mice at 18 weeks of age, retention test, 30 nmol/kg s.c. once a day, mean
Excerpt: Here, SAMP8 mice were utilized to characterize the impact of semaglutide treatment on memory deficits and cognitive decline. Two behavioural tests commonly used to assess cognitive deficits in rodents were employed to assay effects on short-term memory (Y-maze test) and long-term memory (step-through passive avoidance test). The Y-maze is test of short-term memory, assessing spatial working memory and exploratory behaviour by measuring spontaneous alternations, which is the frequency of entering a new arm of the maze rather than returning to one that was previously visited (described in methods). The step-through passive avoidance test measures associative long-term memory by assessing the learning of an association of an aversive stimulus to a particular context (described in methods). SAMP8 mice have measurable deficits in both tests as they age.
The experiment was carried out using SAMP8 mice with the following treatment groups: SAMP8 vehicle treated (n=24) and SAMP8 semaglutide (30 nmol/kg) treated (n=11). […]
The step through passive avoidance performance was performed at 18 weeks of age. […] The step-through latency was recorded up to 300 s, defined as the time it took the mouse to enter the darkened compartment during the retention test. Escape latency was as recorded, defined as the time in the retention test to escape the darkened chamber following the application of a footshock.

[4] = test system: Patients with type 2 diabetes at high risk for or with established cardiovascular disease; assay: Dementia in pooled double-blind RCTs (LEADER, SUSTAIN-6, PIONEER 6), GLP-1 receptor agonist versus placebo; type: in vivo, human; details: each RCT, active arm vs. placebo; for Dementia SMQ GLP-1 Receptor Agonists no. of events: median follow-up 3.8 years (LEADER), 2.1 years (SUSTAIN-6), 1.3 years (PIONEER 6)
Experimental: Exposure to GLP-1 receptor agonist and subsequent diagnosis of dementia was assessed in data sources with long term treatment exposure including three pooled double-blind randomized controlled trials (RCTs) and a nationwide cohort of patients with diabetes. This was done with the aim of investigating whether use of GLP-1 receptor agonists reduces the onset of dementia in patients with diabetes.
A triangulation approach integrating study designs and data sources with different key sources of potential bias was employed to obtain a more reliable answer. First, data was pooled from three large RCTs with GLP-1 receptor agonists; liraglutide (LEADER; 9,340 patients), subcutaneous semaglutide (SUSTAIN-6; 3,297 patients), and oral semaglutide (PIONEER 6; 3,183 patients). All three trials were multicenter, double-blind, placebo-controlled cardiovascular outcomes trials. Patients with type 2 diabetes at high risk for or with established cardiovascular disease were randomly assigned in a 1:1 ratio, to receive placebo or liraglutide (LEADER), or semaglutide (SUSTAIN-6; PIONEER 6) in addition to standard of care. In these trials, the treatment for diabetes (excluding GLP-1 receptor agonists, dipeptidyl peptidase-4 inhibitors (DPP4 inhibitors), and pramlintide) was adjusted or added in both arms, at the investigator's discretion, as previously described. The formulation tested in LEADER was an aqueous composition comprising liraglutide, disodium phosphate dihydrate, propylene glycol, and phenol at pH 8.15. The formulation tested in SUSTAIN-6 was an aqueous composition comprising semaglutide, disodium phosphate dihydrate, propylene glycol, and phenol at pH 7.4. The formulation tested in PIONEER was a tablet comprising semaglutide and SNAC. […]
For the pooled RCTs, an intention-to-treat analysis was performed using Cox regression with treatment assignment as the only explanatory variable to determine the hazard ratio for developing dementia with GLP-1 receptor agonists versus placebo. […] The incidence of dementia with death as competing risk was calculated using the Aalen-Johansen estimator.

N-epsilon26-[2-(2-{2-[2-(2-{2-[(S)-4-Carboxy-4-(17-carboxyheptadecanoylamino)butyrylamino] ethoxy}ethoxy)acetylamino]ethoxy} ethoxy)acetyl][Aib8,Arg34]GLP-1-(7-37) [semaglutide]
hippocampal Iba1 area (area fraction) [1]: 8.53%
percentage alternation behaviour in the Y-maze (SAMP8 mice [2]): 79.1%
escape latency (SAMP8 mice [3]; SEM 3.0 seconds, vehicle 88.8 seconds, p=0.01): 19.0 s
step-through latency (SAMP8 mice [3]; SEM 14.5 seconds, vehicle 109.8 seconds, p<0.0001): 260.5 s
Dementia SMQ GLP-1 Receptor Agonists no. of events ([4]; listed as Semaglutide (oral)): 0
Dementia SMQ GLP-1 Receptor Agonists no. of events ([4]; listed as Semaglutide (s.c)): 3
Dementia SMQ GLP-1 Receptor Agonists rate ([4]; unit not printed in table (b13 gives pooled rates per 1000 patient-years)): 0.88
